Patent US20250340537A1, “PHARMACEUTICALLY ACTIVE COMPOUNDS, COMPOSITIONS, AND METHODS FOR MODULATING PENDRIN” (ARBORMED Co., Ltd., priority 2022, published 2025)
pEC50: −log10 of the molar value.

Tests used:
Type in all cases: cell-based
[1] = target: T1, H723R-pendrin (Homo sapiens, UniProt O43511, H723R); test: YFP fluorescence quenching assay (Cl−/I− exchange activity of pendrin); settings: PANC-1 cells stably expressing human H723R-pendrin and YFP-F46L/H148Q/I152L; compound incubation 20-24 hours; iodide influx
T1 construct: expressed in transfected cells; host or cells: PANC-1
T1 sequence (O43511 1-780 H723R): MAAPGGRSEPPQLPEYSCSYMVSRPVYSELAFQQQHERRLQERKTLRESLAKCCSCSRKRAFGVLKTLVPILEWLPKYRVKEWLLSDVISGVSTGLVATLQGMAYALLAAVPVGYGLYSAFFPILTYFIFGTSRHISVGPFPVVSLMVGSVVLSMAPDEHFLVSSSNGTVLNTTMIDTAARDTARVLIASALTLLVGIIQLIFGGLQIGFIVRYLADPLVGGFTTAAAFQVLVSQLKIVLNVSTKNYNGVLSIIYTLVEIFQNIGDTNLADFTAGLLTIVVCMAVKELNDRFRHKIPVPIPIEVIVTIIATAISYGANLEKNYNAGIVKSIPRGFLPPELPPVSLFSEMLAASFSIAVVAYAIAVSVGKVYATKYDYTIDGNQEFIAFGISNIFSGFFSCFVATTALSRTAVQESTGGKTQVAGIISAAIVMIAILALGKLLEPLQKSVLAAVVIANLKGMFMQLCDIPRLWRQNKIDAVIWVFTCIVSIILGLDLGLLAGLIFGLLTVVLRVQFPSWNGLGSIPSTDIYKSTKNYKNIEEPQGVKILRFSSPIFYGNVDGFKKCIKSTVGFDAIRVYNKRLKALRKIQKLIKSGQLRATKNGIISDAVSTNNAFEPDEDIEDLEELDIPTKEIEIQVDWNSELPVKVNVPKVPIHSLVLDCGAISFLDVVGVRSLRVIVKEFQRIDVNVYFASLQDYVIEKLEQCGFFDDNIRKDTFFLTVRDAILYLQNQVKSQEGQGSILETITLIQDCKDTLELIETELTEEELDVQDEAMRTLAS
Text: Halide sensor YFP F46L/H148Q/I152L is quenched by halide ion like Iodide. When such YFP is expressed in a cell, it expresses in the cytoplasm.
To measure H723R-PDS activity, PANC-1 cells were stably transfected with halide sensors YFP-F46L/H148Q/I152L and H723R-PDS which has problems with membrane trafficking due to misfolding.
If the cell-treated drug is a corrector for H723R-PDS, H723R-PDS will translocate normally to the plasma membrane.
At this time, when treated with a high-concentration iodide solution outside the cell, iodide enters the cell due to the Cl−/I− exchange activity of pendrin, and the fluorescence of the halide sensor YFP decreases.
PANC-1 cells were cultured in Dulbecco's Modified Eagle's Medium with 10% fetal bovine serum, 2 mM glutamine, 100 units/ml penicillin and 100 µg/ml streptomycin. For high-throughput screening, PANC-1 cells were stably transfected with human H723R-pendrin and halide sensor YFP-F46L/H148Q/I152L.
PANC-1 cells expressing human H723R-pendrin and YFP-F46L/H148Q/I152L were plated in 96-well microplates at a density of 2×10^4 cells per well and grown for 20-24 hours at 37° C. (90% humidity 5% CO2). Then these cells were treated with 50 μl growth medium containing test compounds and incubated for 20-24 hours. For YFP quenching assay, each well of the 96-well plate was washed 2 times with 200 μl of PBS, and it was filled with 50 μl of HEPES-buffered solution (140 mM NaCl, 5 mM KCl, 1 mM MgCl2, 1 mM CaCl2, 10 mM D-glucose, 10 mM HEPES; pH 7.4 with NaOH). After 10 minutes of incubation at 37° C., the 96-well plate was moved on the FLUOstar Omega Microplate Reader (BMG Labtech, Ortenberg, Germany) for a fluorescence assay. Each well was assayed individually for H723R-pendrin mediated I^− influx by recording fluorescence (495±15 nm excitation, 520±20 nm emission) every 400 ms for 1 second (baseline). Then, 50 μL of NaI-substituted HEPES-buffered solution (NaI replacing NaCl) was added using a liquid injector at 1 second and YFP fluorescence was recorded every 400 ms for 10 seconds. The initial iodide influx rate was determined from the initial slope of fluorescence by nonlinear regression, after the infusion of iodide.
It is indicated as EC50 with the following key: A=EC50 less than 5 uM; B=EC50 greater than 5 uM, but less than 10 uM; C=EC50 greater than 10 uM.

[2] = target: T2, H723R-hPDS (Homo sapiens, UniProt O43511, H723R); test: Surface biotinylation assay; settings: Panc1 hPDS-H723R cells, 24 h treatment
T2 construct: expressed in transfected cells; host or cells: Panc1 (Panc1^hPDS-H723R)
T2 sequence (O43511 1-780 H723R): T1 sequence (O43511 1-780 H723R)
Text: Surface biotinylation is a commonly used technique to specifically isolate plasma membrane proteins using a modified biotin in a form that is easy to bind with proteins. Sulfo-NHS-SS-biotin is a generally used reagent in surface biotinylation due to its impermeability and water solubility. In cool conditions, the extracellular domain of membrane proteins is covalently binding with the reactive biotin ester. These proteins are separated from the whole lysate via a biotin-streptavidin response. In this process, we can validate the increasing rate of the expression level of mutant pendrin in the plasma membrane.
Panc1^parental, Panc1^hPDS-WT and Panc1^hPDS-H723R cells were cultured in high glucose DMEM medium supplemented with 10% fetal bovine serum and 1% antibiotics. 24 hours after seeding in 6-well plates, cells were treated as indicated for 24 h. Cells were washed in PBS and incubated on ice with 0.3 mg/ml biotin in PBS. After 35 min, 1% BSA in PBS, D.W mixture (1:1) was added to cells, and cells were incubated for 10 min. Cells were washed and lysed in lysis buffer. The lysates were sonicated for 20 seconds, and not boiled. After centrifugated, the supernatants were collected and quantified via BCA analysis. The quantified supernatants were added to 10% avidin beads in PBS and incubated overnight at 4° C. After incubation, the below steps were repeated 4 times: i) centrifugation, ii) removing the supernatant, iii) washing with lysis buffer. After the last centrifugation and removing the supernatant, the sample buffer mixed with reducing buffer was added to biotin-avidin mixtures. The elution was accomplished in the 38° C. bioshaker for 40 min and the supernatant was collected. The supernatant was separated by SDS-PAGE and transferred to an Immobilon membrane. After incubation in 5% BSA solution to prevent nonspecific binding, the membrane was incubated with specific antibodies overnight. Then, the membrane was washed with TBST buffer and incubated with HRP-conjugated anti-rabbit or -mouse antibody for 1 hour. The ECL buffer and iBright were used for the visualization of protein bands. The respective protein band intensity was quantified by densitometric analysis using the NIH ImageJ program.
It is indicated as expression % with the following key: A=Expression % greater than 100%; B=Expression % greater than 50%, but less than 100%; C=Expression % less than 50%.

[3] = target: T1, H723R-pendrin; test: PTI assay (Cl−/HCO3− exchange activity); settings: PANC-1 cells, BCECF pHi
Description: Measurements of intracellular pH (pHi) in PANC-1 cells were performed with the pH-sensitive fluorescent probe 2′,7′-bis-(2-carboxyethyl)-5-(and-6)-carboxyfluorescein (BCECF) according to previously reported protocols. Briefly, cells were incubated with 2 μM BCECF acetoxy-methylester for 5 min and then perfused with a HCO3^−-buffered solution [containing 120 mM NaCl, 5 mM KCl, 1 mM MgCl2, 1 mM CaCl2, 10 mM d-glucose, 5 mM Hepes, and 25 mM NaHCO3 (pH 7.4)].
BCECF fluorescence was recorded at excitation wavelengths of 490 and 440 nm at a resolution of 2/s on a recording setup. The Cl^−/HCO3^− exchange activities were estimated from the initial rate of pHi increase as a result of Cl^− removal from the HCO3^−-containing buffer (25 mM HCO3^− with 5% CO2).
The pHi calibration was performed with standard pH solutions containing 150 mM KCl and 5 μM nigericin. The intrinsic buffer capacity (βi) was calculated by measuring ΔpHi in response to 5 to 40 mM NH4Cl pulses in Na^+-free solutions. Because the βi values were not substantially affected by transfection with the plasmids encoding for WT-pendrin or H723R-pendrin, the Cl^−/HCO3^− exchange activities were expressed as ΔpH unit/min without compensating for the buffer capacity.
It is indicated as exchange % with the following key: A=Exchange % greater than 50%; B=Exchange % less than 50%.

Row | SMILES | pEC50 [1] | Surface expression % of H723R-hPDS relative to WT-hPDS (Glycosylated form pendrin) ([2]; 3 uM) | Surface expression % of H723R-hPDS relative to WT-hPDS (Glycosylated form pendrin) ([2]; 10 uM) | Cl−/HCO3− exchange, % of WT-hPDS ([3]; 3 uM) | Cl−/HCO3− exchange, % of WT-hPDS ([3]; 10 uM)
1 | NC1=C(c2cncc(-c3ccc(O)c(O)c3)n2)C(=O)CN1C1CCCC1 [Compound 33] | > 5.30 | A (A=Expression % greater than 100%) | A (A=Expression % greater than 100%) | – | –
2 | CC(C)CN1CC(=O)C(c2cncc(-c3ccc(O)c(O)c3)n2)=C1N [Compound 13] | > 5.30 | A (A=Expression % greater than 100%) | A (A=Expression % greater than 100%) | – | –
3 | COc1ccc(-c2cncc(C3=C(N)N(CC(C)C)CC3=O)n2)cc1OC [Compound 8] | > 5.30 | B (B=Expression % greater than 50%, but less than 100%) | A (A=Expression % greater than 100%) | – | –
4 | NC1=C(c2cncc(-c3ccc(O)c(O)c3)n2)C(=O)CN1CCC1CCCC1 [Compound 46] | > 5.30 | B (B=Expression % greater than 50%, but less than 100%) | A (A=Expression % greater than 100%) | – | –
5 | NC1=C(c2cncc(-c3ccc(O)c(O)c3)n2)C(=O)CN1C1CCC(F)(F)C1 (stereo not shown) [Compound 62] | > 5.30 | B (B=Expression % greater than 50%, but less than 100%) | A (A=Expression % greater than 100%) | – | –
6 | NC1=C(c2cncc(-c3ccc(O)c(O)c3)n2)C(=O)CN1CC1CCCCC1 [Compound 49] | > 5.30 | A (A=Expression % greater than 100%) | A (A=Expression % greater than 100%) | A (A=Exchange % greater than 50%) | A (A=Exchange % greater than 50%)
7 | COc1cc(-c2cncc(C3=C(N)N(c4ccccc4Cl)CC3=O)n2)ccc1O [Compound 28] | > 5.30 | A (A=Expression % greater than 100%) | A (A=Expression % greater than 100%) | B (B=Exchange % less than 50%) | A (A=Exchange % greater than 50%)

Continued, values first:

Row | pEC50 [1] | Surface expression % of H723R-hPDS relative to WT-hPDS (Glycosylated form pendrin) ([2]; 3 uM) | Surface expression % of H723R-hPDS relative to WT-hPDS (Glycosylated form pendrin) ([2]; 10 uM) | Cl−/HCO3− exchange, % of WT-hPDS ([3]; 3 uM) | Cl−/HCO3− exchange, % of WT-hPDS ([3]; 10 uM) | SMILES
8 | > 5.30 | – | – | A (A=Exchange % greater than 50%) | A (A=Exchange % greater than 50%) | COc1cc(-c2cncc(C3=C(N)N(CC4CCCC4)CC3=O)n2)ccc1O [Compound 73]
9 | > 5.30 | – | – | B (B=Exchange % less than 50%) | A (A=Exchange % greater than 50%) | NC1=C(c2cncc(-c3ccc(O)c(O)c3)n2)C(=O)CN1CC1CCC1 [Compound 69]
